Laboratory results as given in patent publication EP0302626A2, “Insecticidal compounds” (IMPERIAL CHEMICAL INDUSTRIES PLC, priority 1987, dated 1989).
Several values for one entry are separate records, joined by “and”; a condition that tells them apart may be missing. Equal entries are not always repeated. Where two headings read alike, the source gives them in different places.

What was measured:
Format in all cases: in vivo
[1] = tested on: Tetranychus urticae (spider mites - adult); experiment: insecticidal mortality test, contact, French bean leaf; settings: for mortality at 100 ppm: Tetranychus urticae, 72 h, read-out: grading of mortality, Tua, 100 ppm, 3 days
Method: (§1) The activity of the Product was determined using a variety of insect pests. The Product was used in the form of liquid preparations containing 500, 250 or 100 parts per million (ppm) by weight of the Product. The preparations were made by dissolving the Product in acetone and diluting the solutions with water containing 0.01% by weight of a wetting agent sold under the trade name "LlSSAPOL" NX until the liquid preparations contained the required concentration of the Product. "Lissapol" is a Registered Trade Mark.
(§2) The test procedure adopted with regard to each pest was basically the same and comprised supporting a number of the pests on a medium which was usually a host plant or a foodstuff on which the pests feed, and treating either or both the pests and the medium with the preparations. The mortality of the pests was then assessed at periods usually varying from one to three days after the treatment.
(§3) The results of the tests are given in Table III for each of the Products, at the rate in parts per million given in the second column as a grading of mortality designated as A, B or C wherein A indicates 80-100% mortality, B indicates 50-79% mortality and C indicates less than 50% mortality.
(§4) In Table 111 the pest organism used is designated by a letter code and the pests species, the support medium or food, and the type and duration of test is given in Table II.

[2] = tested on: Myzus persicae (aphids); experiment: insecticidal mortality test, contact, Chinese Cabbage leaf; settings: 72 h, read-out: grading of mortality, MP
Method: as §1, §2, §3, §4

[3] = tested on: Nephotettix cincticeps (green leaf hopper - nymphs); experiment: insecticidal mortality test, contact, rice plant; settings: read-out: grading of mortality, NC
Method: as §1, §2, §3, §4

[4] = tested on: Heliothis virescens (tobacco budworm - larvae); experiment: insecticidal mortality test, residual, cotton leaf; settings: read-out: grading of mortality, HV
Method: as §1, §2, §3, §4

[5] = tested on: Spodoptera exigua (lesser army worm - larvae); experiment: insecticidal mortality test, residual, cotton leaf; settings: read-out: grading of mortality, SP
Method: as §1, §2, §3, §4

[6] = tested on: Diabrotica balteata (rootworm larvae); experiment: insecticidal mortality test, residual, filter paper/maize seed; settings: read-out: grading of mortality, DB
Method: as §1, §2, §3, §4

[7] = tested on: Blattella germanica (cockroach nymphs); experiment: insecticidal mortality test, residual, plastic pot; settings: 72 h, read-out: grading of mortality, BG
Method: as §1, §2, §3, §4

[8] = tested on: Musca domestica (houseflies - adults); experiment: insecticidal mortality test, contact, cotton wool/sugar; settings: read-out: grading of mortality, MD
Method: as §1, §2, §3, §4

[9] = tested on: Blattella germanica (adult males); experiment: Blattella germanica knockdown test; settings: for KT₅₀: time taken to knockdown 50% of test insects; for KT₅₀ / KT₉₀: Tetramethrin: mean of 3 assessments; for KT₉₀: time taken to knockdown 90% of test insects; for pest or weed control at 250 ppm: topical, Tetramethrin: mean of 27 observations
Method: The test compound was dissolved in acetone (2 cm³) and the solution diluted to a concentration of 250 ppm with kerosene. 1 cm³ Of this preparation was sprayed onto 10 Blattella germanica (adult males) held in a netted plastic pot in a Burkhard potter Tower. Assessment of knockdown was performed at intervals of 5 minutes up to a total of 20 minutes. On removal from the Burkhard Potter Tower, the insects were held at 25°C and 65% relative humidity for 48 hours, and an assessment of mortality performed. Each test was repeated.
In some tests, additional knockdown assessment was performed at intervals of 1, 2, 3 and 4 minutes, and KT₅₀ and KT₉₀ values determined (the time taken, in minutes, to knockdown 50% and 90% respectively of test insects).

[10] = 48 h, 100 ppm, contact, rice plant, test duration of 2 days (footnote +)
[11] = 48 h, 100 ppm, residual, cotton leaf, test duration of 2 days (footnote +)
[12] = 72 h, 100 ppm, contact, rice plant, 3 days
[13] = 72 h, 100 ppm, residual, cotton leaf, 3 days

Compound	mortality at 100 ppm [1] [%]	mortality at 100 ppm [2] [%]	mortality at 100 ppm [7] [%]	mortality at 100 ppm ([5]; 72 h) [%]	mortality at 100 ppm ([6]; 72 h) [%]	mortality at 100 ppm ([8]; 24 h) [%]	mortality at 100 ppm ([4]; 72 h) [%]	mortality at 100 ppm ([3]; 72 h) [%]	also measured
CC1(C)C(/C=C(\F)C(F)(F)F)C1C(=O)OCc1c(F)c(F)c(CN=[N+]=[N-])c(F)c1F (mixture of isomers) [Product XXVIII, 4-(azidomethyl)-2,3,5,6-tetrafluorobenzyl (1RS, cis/trans)-3-(Z-2,3,3,3-tetrafluoroprop-1-en-1-yl)2,2-dimethylcyclopropanecarboxylate]	< 50	80 to 100	80 to 100						mortality at 100 ppm [3, 10]: 80 to 100%; mortality at 100 ppm [4, 11]: 80 to 100%; mortality at 100 ppm ([5]; 48 h): 80 to 100%; mortality at 100 ppm ([6]; 48 h): 80 to 100%; mortality at 100 ppm ([8]; 72 h): 80 to 100%; % KNOCKDOWN OBSERVED 15 min ([9]; 250 ppm in kerosene, 1 cm3 sprayed onto 10 adult males, 15 min, tests 1 and 2 are repeats): 70%; % KNOCKDOWN OBSERVED 20 min ([9]; 250 ppm in kerosene, 1 cm3 sprayed onto 10 adult males, 20 min, tests 1 and 2 are repeats): 100%; KT₅₀ ([9]; 250 ppm spray): 6.4 min and 12.6 min; KT₉₀ ([9]; 250 ppm spray): 9.3 min and 18.3 min; mortality at 250 ppm ([9]; Blattella germanica, 48 h, 250 ppm spray, insects held at 25°C and 65% relative humidity for 48 hours, tests 1 and 2 are repeats, read-out: % MORTALITY 48 hrs): 100%
CC1(C)C(C=C(Cl)C(F)(F)F)C1C(=O)OCc1c(F)c(F)c(COC=O)c(F)c1F (racemic) [Product VIII, 4-(Formyloxymethyl)-2,3,5,6-tetrafluoromethyl (1RS, cis)-3-(Z-2-chloro-3,3,3-trifluoroprop-1-en-1-yl)-2,2-dimethylcyclopropanecarboxylate]				80 to 100	80 to 100	80 to 100			grading of mortality, Tua ([1]; 100 ppm, 3 days, listed as VIII, 4320 min): A (A indicates 80-100% mortality); mortality at 100 ppm [3, 12]: 80 to 100%; mortality at 100 ppm [4, 13]: 80 to 100%
CC1(C)C(C=C(Cl)C(F)(F)F)C1C(=O)OCc1c(F)c(F)c(CCC#N)c(F)c1F (racemic) [Product XXI, 4-(2-cyanoethyl)-2,3,5,6-tetrafluorobenzyl (1RS, cis)-3-(Z-2-chloro-3,3,3-trifluoroprop-1-en-1-yl)-2,2-dimethylcyclopropanecarboxylate]	< 50	80 to 100	< 50						mortality at 100 ppm [3, 10]: 80 to 100%; mortality at 100 ppm [4, 11]: 80 to 100%; mortality at 100 ppm ([5]; 48 h): < 50%; mortality at 100 ppm ([6]; 48 h): < 50%; mortality at 100 ppm ([8]; 72 h): < 50%; % MORTALITY 48 hrs ([9]; 250 ppm spray, insects held at 25°C and 65% relative humidity for 48 hours, tests 1 and 2 are repeats, 2880 min): 60% and 100%; KT₅₀ ([9]; 250 ppm spray): 4.2 min and 3.6 min; KT₉₀ ([9]; 250 ppm spray): 8.8 min and 8.2 min; pest or weed control at 250 ppm ([9]; Blattella germanica, 5 min, 250 ppm in kerosene, 1 cm3 sprayed onto 10 adult males, 5 min, tests 1 and 2 are repeats, read-out: % KNOCKDOWN OBSERVED 5 min): 60%; pest or weed control at 250 ppm ([9]; Blattella germanica, 10 min, 250 ppm in kerosene, 1 cm3 sprayed onto 10 adult males, 10 min, tests 1 and 2 are repeats, read-out: % KNOCKDOWN OBSERVED 10 min): 100%
CC1(C)[C@H](C(=O)OCc2c(F)c(F)c(CBr)c(F)c2F)[C@@H]1/C=C(\Cl)C(F)(F)F (relative stereo) [Product I, 4-(Bromomethyl)-2,3,5,6-tetrafluorobenzyl (1RS,cis)-3-(Z-2-chloro-3,3,3-trifluoroprop-1-en-1-yl)-2,2-dimethyl-cyclopropanecarboxylate]	< 50				80 to 100	< 50	50 to 79		
CC1(C)[C@H](C(=O)OCc2c(F)c(F)c(COS(C)(=O)=O)c(F)c2F)[C@@H]1/C=C(\Cl)C(F)(F)F (relative stereo) [Product IV, 4-(methanesulphonyloxymethyl)-2,3,5,6-tetrafluorobenzyl (1RS,cis)-3-(Z-2-chloro-3,3,3-trifluoroprop-1-en-1-yl)-2,2-dimethylcyclopropanecarboxylate]	80 to 100	80 to 100	80 to 100	80 to 100	< 50	< 50	80 to 100	80 to 100	
CC1(C)[C@H](C(=O)OCc2c(F)c(F)c(COC(=O)C(F)(F)F)c(F)c2F)[C@@H]1/C=C(\Cl)C(F)(F)F (relative stereo) [Product V, 4-(trifluoroacetoxymethyl)-2,3,5,6-tetrafluorobenzyl (1RS,cis)-3-(Z-2-chloro-3,3,3-trifluoroprop-1-en-1-yl)-2,2-dimethylcyclopropanecarboxylate]	80 to 100	80 to 100	80 to 100	80 to 100	80 to 100	80 to 100	80 to 100	80 to 100	
COC(=O)OCc1c(F)c(F)c(COC(=O)[C@@H]2[C@H](/C=C(\Cl)C(F)(F)F)C2(C)C)c(F)c1F (relative stereo) [Product VII, 4-(Methoxycarbonyloxymethyl)-2,3,5,6-tetrafluorobenzyl (1RS,cis)-3-(Z-2-chloro-3,3,3-trifluoroprop-1-en-1-yl)-2,2-dimethylcyclopropanecarboxylate]	80 to 100	80 to 100	80 to 100	80 to 100	80 to 100	< 50	80 to 100	80 to 100	
CC#CCOCc1c(F)c(F)c(COC(=O)[C@@H]2[C@H](/C=C(\Cl)C(F)(F)F)C2(C)C)c(F)c1F (relative stereo) [Product XIX, 4-[(But-2-yn-1-yl)oxymethyl]-2,3,5,6-tetrafluorobenzyl (1RS,cis)-3-(Z-2-chloro-3,3,3-trifluoroprop-1-en-1-yl)-2,2-dimethylcyclopropanecarboxylate]	50 to 79	80 to 100	80 to 100	80 to 100	80 to 100	50 to 79	80 to 100	80 to 100	
C#CCOCc1c(F)c(F)c(COC(=O)[C@@H]2[C@H](/C=C(\Cl)C(F)(F)F)C2(C)C)c(F)c1F (relative stereo) [Product XX, 4-[(Prop-2-yn-1-yl)oxymethyl]-2,3,5,6-tetrafluorobenzyl (1RS,cis)-3-(Z-2-chloro-3,3,3-trifluoroprop-1-en-1-yl)-2,2-dimethylcyclopropanecarboxylate]	80 to 100	80 to 100	80 to 100	80 to 100	80 to 100	80 to 100	80 to 100	80 to 100	
C#CC(C)OCc1c(F)c(F)c(COC(=O)C2C(C=C(Cl)C(F)(F)F)C2(C)C)c(F)c1F (stereo not drawn) [Product XVIII, (Rs)-4-[(l-methylprop-2-yn-1-yl)oxymethyl]-2,3,5,6-tetrafluorobenzyl (1RS,cis)-3-(Z-2-chloro-3,3,3-trifluoroprop-1-en-1-yl)-2,2-dimethylcyclopropanecarboxylate]	< 50	80 to 100	80 to 100	80 to 100	80 to 100	80 to 100			mortality at 100 ppm [3, 12]: 80 to 100%; mortality at 100 ppm [4, 13]: 80 to 100%
